Legend:
CYP3A4 = CYP3A4 (Homo sapiens, UniProt P08684); conditions: cited from earlier work
UGT1A1 = target: T1, UGT1A1 (Homo sapiens, UniProt P22309); conditions: cited from earlier work
T1 sequence (P22309 26-533): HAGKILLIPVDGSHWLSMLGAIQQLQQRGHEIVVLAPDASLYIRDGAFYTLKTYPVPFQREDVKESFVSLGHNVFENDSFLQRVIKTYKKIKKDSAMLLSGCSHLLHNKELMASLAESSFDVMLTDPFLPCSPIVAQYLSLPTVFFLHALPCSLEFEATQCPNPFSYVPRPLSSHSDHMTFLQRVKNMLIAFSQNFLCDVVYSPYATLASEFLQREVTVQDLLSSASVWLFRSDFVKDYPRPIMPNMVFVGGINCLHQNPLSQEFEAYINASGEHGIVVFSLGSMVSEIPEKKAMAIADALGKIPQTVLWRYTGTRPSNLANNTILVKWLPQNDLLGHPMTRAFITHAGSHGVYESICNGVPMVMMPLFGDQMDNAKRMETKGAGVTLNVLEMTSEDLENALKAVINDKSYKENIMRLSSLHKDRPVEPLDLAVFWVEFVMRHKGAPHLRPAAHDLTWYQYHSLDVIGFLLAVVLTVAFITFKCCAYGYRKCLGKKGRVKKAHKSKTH

UGT1A3 = target: T2, UGT1A3 (Homo sapiens, UniProt P35503); conditions: in vitro; cited from earlier work
T2 sequence (P35503 29-534): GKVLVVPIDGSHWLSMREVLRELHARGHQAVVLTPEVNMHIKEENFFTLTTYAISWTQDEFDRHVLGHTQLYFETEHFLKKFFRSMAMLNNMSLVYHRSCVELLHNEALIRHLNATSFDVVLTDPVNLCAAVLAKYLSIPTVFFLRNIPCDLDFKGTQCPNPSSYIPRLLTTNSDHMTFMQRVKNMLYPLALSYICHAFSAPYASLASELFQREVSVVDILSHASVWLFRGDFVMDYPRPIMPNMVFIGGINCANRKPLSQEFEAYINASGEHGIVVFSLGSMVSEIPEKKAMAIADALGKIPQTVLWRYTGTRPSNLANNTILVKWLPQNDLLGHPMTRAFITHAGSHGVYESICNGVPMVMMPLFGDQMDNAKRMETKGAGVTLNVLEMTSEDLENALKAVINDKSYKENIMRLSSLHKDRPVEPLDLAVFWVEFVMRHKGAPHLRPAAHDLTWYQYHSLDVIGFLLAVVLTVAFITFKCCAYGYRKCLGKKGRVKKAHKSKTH

UGT1A9 = target: T3, UGT1A9 (Homo sapiens, UniProt O60656); conditions: in vitro; cited from earlier work
T3 sequence (O60656 26-530): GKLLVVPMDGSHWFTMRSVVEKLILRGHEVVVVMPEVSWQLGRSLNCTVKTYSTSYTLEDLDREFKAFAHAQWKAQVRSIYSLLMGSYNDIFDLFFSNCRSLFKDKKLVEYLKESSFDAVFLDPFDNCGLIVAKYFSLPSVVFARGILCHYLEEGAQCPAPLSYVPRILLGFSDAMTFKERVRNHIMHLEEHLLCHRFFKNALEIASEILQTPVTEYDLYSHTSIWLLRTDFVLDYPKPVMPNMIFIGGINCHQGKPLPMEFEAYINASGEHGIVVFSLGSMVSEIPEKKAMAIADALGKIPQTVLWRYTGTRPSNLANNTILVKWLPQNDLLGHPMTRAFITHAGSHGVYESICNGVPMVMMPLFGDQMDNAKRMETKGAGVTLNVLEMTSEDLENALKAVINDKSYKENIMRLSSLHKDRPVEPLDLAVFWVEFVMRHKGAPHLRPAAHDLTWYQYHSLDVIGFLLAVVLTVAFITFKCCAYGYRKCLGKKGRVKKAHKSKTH

BCRP = target: T4, BCRP (Homo sapiens, UniProt Q9UNQ0); conditions: in vitro; cited from earlier work
T4 sequence (Q9UNQ0 1-655): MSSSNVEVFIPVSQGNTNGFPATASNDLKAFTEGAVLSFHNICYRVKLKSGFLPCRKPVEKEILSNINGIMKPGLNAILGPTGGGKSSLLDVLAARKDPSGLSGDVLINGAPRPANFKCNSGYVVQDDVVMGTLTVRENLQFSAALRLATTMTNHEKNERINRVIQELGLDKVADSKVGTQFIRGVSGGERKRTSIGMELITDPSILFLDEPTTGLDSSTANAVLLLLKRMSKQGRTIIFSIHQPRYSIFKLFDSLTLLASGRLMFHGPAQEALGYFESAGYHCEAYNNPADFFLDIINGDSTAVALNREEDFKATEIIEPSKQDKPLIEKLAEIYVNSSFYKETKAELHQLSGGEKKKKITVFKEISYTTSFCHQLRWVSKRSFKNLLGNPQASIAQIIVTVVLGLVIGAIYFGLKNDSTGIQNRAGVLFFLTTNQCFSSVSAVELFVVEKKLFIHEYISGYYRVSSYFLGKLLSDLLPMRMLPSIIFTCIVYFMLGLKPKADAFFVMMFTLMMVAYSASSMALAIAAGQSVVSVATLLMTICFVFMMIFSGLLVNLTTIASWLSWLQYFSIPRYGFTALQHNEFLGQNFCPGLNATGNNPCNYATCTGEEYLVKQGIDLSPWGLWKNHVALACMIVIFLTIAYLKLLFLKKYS

P-gp = P-gp (Homo sapiens, UniProt P08183); conditions: in vitro; cited from earlier work
[1] = Drug-drug interactions: effect on concentration on co-administration (Table 1)
[2] = target: T5, human cellular DNA polymerase α (Homo sapiens, UniProt P09884); conditions: cited from earlier work
T5 sequence (P09884 1-1462): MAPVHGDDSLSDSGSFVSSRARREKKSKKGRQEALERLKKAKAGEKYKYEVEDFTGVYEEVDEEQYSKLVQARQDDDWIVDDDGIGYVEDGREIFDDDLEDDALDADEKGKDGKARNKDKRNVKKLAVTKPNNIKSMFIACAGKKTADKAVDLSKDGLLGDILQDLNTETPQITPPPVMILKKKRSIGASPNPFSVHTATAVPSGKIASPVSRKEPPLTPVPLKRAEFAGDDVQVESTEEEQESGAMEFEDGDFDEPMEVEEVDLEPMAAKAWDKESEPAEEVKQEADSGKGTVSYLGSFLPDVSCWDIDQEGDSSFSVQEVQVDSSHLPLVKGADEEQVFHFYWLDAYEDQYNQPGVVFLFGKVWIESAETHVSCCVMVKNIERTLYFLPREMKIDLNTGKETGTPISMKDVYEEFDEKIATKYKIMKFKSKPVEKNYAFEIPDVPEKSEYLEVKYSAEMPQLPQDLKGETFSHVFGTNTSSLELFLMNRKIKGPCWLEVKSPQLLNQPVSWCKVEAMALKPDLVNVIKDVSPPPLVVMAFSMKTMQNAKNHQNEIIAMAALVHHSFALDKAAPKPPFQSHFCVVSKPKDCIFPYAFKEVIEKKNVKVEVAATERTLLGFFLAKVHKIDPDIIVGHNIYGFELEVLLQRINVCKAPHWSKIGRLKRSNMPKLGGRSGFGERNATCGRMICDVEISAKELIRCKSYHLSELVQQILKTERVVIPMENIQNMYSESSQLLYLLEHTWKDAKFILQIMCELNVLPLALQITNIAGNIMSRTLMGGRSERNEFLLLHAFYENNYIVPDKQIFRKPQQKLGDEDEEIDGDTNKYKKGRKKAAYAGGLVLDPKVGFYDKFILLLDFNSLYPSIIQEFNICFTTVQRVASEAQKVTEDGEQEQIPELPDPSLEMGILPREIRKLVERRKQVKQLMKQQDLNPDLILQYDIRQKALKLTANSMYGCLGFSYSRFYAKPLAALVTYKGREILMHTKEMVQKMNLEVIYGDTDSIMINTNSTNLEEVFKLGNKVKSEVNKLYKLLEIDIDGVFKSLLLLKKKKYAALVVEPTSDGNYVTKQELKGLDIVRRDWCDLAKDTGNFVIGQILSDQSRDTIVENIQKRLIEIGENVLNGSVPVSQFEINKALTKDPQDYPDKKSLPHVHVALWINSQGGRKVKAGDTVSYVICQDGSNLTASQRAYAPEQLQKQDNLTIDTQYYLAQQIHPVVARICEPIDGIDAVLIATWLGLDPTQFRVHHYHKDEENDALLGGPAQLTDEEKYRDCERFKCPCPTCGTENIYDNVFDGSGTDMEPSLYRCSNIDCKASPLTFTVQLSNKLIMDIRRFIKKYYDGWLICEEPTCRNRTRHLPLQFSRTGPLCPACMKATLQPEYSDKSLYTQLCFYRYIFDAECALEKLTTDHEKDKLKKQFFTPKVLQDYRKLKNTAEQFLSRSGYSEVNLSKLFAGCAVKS

[3] = target: human cellular DNA polymerase β (Homo sapiens, UniProt P06746); conditions: cited from earlier work
[4] = target: T6, human cellular DNA polymerase γ (Homo sapiens, UniProt P54098); conditions: cited from earlier work
T6 sequence (P54098 1-1239): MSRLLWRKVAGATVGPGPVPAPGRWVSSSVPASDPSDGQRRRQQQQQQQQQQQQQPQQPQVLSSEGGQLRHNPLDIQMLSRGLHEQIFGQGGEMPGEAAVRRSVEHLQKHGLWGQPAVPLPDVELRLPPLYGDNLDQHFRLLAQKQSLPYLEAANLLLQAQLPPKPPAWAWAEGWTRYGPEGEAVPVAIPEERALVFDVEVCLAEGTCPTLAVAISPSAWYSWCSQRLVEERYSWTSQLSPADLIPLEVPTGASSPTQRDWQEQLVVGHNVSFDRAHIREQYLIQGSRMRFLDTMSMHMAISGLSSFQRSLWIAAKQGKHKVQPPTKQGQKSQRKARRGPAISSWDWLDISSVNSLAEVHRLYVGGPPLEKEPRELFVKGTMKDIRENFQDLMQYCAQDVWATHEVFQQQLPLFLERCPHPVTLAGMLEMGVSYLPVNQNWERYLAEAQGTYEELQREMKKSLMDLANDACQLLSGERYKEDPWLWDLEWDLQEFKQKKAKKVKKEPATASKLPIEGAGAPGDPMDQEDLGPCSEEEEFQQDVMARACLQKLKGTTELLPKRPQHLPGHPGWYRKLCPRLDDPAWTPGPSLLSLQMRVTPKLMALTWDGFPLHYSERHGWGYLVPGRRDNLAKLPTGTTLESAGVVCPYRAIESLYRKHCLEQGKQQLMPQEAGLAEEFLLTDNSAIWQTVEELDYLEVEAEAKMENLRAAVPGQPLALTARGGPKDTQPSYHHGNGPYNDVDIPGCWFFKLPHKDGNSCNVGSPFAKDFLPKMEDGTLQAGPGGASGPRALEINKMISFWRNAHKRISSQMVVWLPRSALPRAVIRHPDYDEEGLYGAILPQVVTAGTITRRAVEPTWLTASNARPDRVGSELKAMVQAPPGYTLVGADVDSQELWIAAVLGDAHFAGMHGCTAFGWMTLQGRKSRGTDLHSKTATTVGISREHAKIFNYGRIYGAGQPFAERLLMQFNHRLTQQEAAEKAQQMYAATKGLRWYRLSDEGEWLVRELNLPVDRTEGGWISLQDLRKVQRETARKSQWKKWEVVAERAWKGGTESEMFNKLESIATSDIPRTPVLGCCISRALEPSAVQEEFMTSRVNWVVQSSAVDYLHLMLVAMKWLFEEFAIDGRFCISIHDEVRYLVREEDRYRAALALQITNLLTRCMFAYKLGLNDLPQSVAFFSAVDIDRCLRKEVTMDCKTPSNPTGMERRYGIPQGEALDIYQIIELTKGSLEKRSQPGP

CYP3A = conditions: cited from earlier work
CYP enzymes = conditions: rilpivirine 25 mg once daily; cited from earlier work

Chain of CYP3A4 (P08684 whole entry): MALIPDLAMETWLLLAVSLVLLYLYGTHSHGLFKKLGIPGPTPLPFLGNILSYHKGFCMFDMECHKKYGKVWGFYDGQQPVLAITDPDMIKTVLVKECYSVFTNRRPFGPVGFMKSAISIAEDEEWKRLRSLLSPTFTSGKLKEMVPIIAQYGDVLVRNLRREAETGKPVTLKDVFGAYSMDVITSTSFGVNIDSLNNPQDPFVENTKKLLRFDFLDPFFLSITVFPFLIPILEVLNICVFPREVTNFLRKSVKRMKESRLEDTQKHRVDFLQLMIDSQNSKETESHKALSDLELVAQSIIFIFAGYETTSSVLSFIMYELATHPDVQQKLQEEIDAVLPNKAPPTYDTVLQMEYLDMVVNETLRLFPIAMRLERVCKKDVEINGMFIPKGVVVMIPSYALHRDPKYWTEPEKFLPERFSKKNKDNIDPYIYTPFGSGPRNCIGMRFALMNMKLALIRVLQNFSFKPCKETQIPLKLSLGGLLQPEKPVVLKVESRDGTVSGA
Chain of P-gp (P08183 whole entry): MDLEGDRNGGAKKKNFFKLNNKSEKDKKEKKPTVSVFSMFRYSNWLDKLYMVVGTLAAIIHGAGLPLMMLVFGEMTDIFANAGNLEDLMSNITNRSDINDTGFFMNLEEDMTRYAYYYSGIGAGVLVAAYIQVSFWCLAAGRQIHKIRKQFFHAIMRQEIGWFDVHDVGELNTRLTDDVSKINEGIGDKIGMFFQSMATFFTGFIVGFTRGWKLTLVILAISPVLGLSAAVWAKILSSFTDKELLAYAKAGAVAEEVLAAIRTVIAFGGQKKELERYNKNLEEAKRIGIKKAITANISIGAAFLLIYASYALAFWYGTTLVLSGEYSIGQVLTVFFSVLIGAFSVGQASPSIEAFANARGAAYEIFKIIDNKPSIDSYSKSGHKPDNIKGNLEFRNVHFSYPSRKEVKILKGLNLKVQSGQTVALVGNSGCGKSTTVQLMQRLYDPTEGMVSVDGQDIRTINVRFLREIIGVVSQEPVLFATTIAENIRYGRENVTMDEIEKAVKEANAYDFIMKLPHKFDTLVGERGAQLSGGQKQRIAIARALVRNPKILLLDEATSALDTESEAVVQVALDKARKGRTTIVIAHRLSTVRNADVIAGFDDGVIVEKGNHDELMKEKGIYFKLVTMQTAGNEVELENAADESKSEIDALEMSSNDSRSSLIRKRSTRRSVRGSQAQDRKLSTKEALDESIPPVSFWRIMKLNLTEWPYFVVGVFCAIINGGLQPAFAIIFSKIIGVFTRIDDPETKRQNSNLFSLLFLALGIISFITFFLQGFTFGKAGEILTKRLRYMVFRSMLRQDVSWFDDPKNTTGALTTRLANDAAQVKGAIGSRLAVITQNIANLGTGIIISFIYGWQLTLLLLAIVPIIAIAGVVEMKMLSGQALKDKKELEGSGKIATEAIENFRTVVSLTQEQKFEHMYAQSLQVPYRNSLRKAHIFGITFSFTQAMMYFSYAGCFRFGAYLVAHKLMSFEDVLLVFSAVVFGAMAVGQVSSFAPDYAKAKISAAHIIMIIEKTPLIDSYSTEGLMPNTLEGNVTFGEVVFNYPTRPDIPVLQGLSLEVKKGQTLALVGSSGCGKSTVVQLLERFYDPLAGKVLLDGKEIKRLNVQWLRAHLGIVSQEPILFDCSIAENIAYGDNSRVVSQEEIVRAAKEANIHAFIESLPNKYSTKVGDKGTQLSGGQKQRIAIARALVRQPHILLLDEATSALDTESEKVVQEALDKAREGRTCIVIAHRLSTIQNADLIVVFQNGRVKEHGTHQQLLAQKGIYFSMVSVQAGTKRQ

SMILES: O=C(NCc1c(F)cc(F)cc1F)c1cn2c(c(O)c1=O)C(=O)N1[C@H]3CC[C@H](C3)O[C@@H]1C2 [Bictegravir, (2R,5S,13aR)-8-hidroxi-7,9-dioxo-N-[(2,4,6-trifluorofenil)metil]-2,3,4,5,7,9,13,13a-octahidro-2,5-metanopirido [1′,2′:4,5]pirazino[2,1-b][1,3]oxazepina-10-carboxamida]
- Metabolic clearance through CYP3A4 (CYP3A4): metabolically cleared
- Metabolic clearance through UGT1A1 (UGT1A1): metabolically cleared
- Substrate of UGT1A3 (UGT1A3): substrate
- Substrate of UGT1A9 (UGT1A9): substrate
- Substrate of BCRP (BCRP): substrate
- Substrate of P-gp (P-gp): substrate

SMILES: CN(C)C(=N)N=C(N)N [Metformin]
- Effect on Concentration ([1]; concomitant use of metformin and a composition of the invention): ↑Metformin

SMILES: CCC(=O)C(CC(C)N(C)C)(c1ccccc1)c1ccccc1 (centres unmarked) [Methadone]
- Effect on Concentration ([1]; concomitant use of methadone and a composition of the invention): ↔Methadone

SMILES: CO[C@H]1/C=C/O[C@@]2(C)Oc3c(C)c(O)c4c(c3C2=O)C2=NC3(CCN(CC(C)C)CC3)NC2=C(NC(=O)/C(C)=C\C=C\[C@H](C)[C@H](O)[C@@H](C)[C@@H](O)[C@@H](C)[C@H](OC(C)=O)[C@@H]1C)C4=O [Rifabutin]
- Effect on Concentration ([1]; concomitant use of rifabutin and a composition of the invention): ↔Rifabutin

SMILES: Cc1cc(/C=C/C#N)cc(C)c1Nc1ccnc(Nc2ccc(C#N)cc2)n1 [Rilpivirine, 4-[[4-[[4-[(E)-2-cyanoethenyl]-2,6-dimethylphenyl]amino]-2-pyrimidinyl]amino]benzonitrile]
- Inhibition of human cellular DNA polymerase α [2]: does not inhibit
- Inhibition of human cellular DNA polymerase β [3]: does not inhibit
- Inhibition of human cellular DNA polymerase γ [4]: does not inhibit
- Metabolism by CYP3A (CYP3A): primarily metabolized
- Effect on the exposure of medicinal products metabolized by CYP enzymes (CYP enzymes): not likely to have a clinically relevant effect

— patent US10758531B2, “Regimens and compositions for treating HIV infections and AIDS” (ViiV Healthcare Company, priority 2016, dated 2020)
